The source of these data is patent US20110160053A1, “Synergistic Combination of Prothioconazole and Metominostrobin” (Bayer CropScience AG, priority 2009, published 2011).

Type in all cases: in vivo
Test [1] deals with Blumeria graminis fsp. tritici. The experiment in a line: Blumeria test (wheat) / preventive. To be noted: rate of application 62.5 ppm, evaluated 7 days after inoculation. As for the experimental part:
[table] To produce a suitable preparation of active compound, 1 part by weight of active compound or active compound combination is mixed with the stated amounts of solvent and emulsifier, and the concentrate is diluted with water to the desired concentration. To test for preventive activity, young plants are sprayed with the preparation of active compound or active compound combination at the stated rate of application. After the spray coating has been dried, the plants are dusted with spores of Blumeria graminis fsp. tritici. The plants are placed in the greenhouse at a temperature of approximately 18° C. and a relative atmospheric humidity of approximately 80% to promote the development of mildew pustules. The test is evaluated 7 days after the inoculation. 0% means an efficacy which corresponds to that of the control, while an efficacy of 100% means that no disease is observed.

Test [2] concerns Phakopsora pachyrhizi. Nature of the test: Phakopsora test (soybeans) / protective. Conditions: evaluated 11 days after inoculation. As for the experimental part:
To produce a suitable preparation of active compound, 1 part by weight of active compound or active compound combination is mixed with the stated amounts of solvent and emulsifier, and the concentrate is diluted with water to the desired concentration.
To test for protective activity, young plants are sprayed with the preparation of active compound or active compound combination at the stated rate of application. After the spray coating has dried on, the plants are placed in a greenhouse at a temperature of approximately 23° C. and a relative atmospheric humidity of approximately 70%.
1 day after spraying, the plants are inoculated with an aqueous spore suspension of the causal agent of soybean rust (Phakopsora pachyrhizi). The plants are then placed in a greenhouse at approximately 20° C. and a relative atmospheric humidity of approximately 80%. The test is evaluated 11 days after the inoculation. 0% means an efficacy which corresponds to that of the control, while an efficacy of 100% means that no disease is observed.

Test [3] relates to Sphaerotheca fuliginea. Nature of the test: Sphaerotheca test (cucumbers) / protective. To be noted: rate of application 2 ppm, evaluated 7 days after inoculation. The protocol:
[table] To produce a suitable preparation of active compound, 1 part by weight of active compound is mixed with the stated amounts of solvent and emulsifier, and the concentrate is diluted with water to the desired concentration. To test for protect activity, young plants are sprayed with the preparation of active compound at the stated rate of application. After the spray coating has dried on, the plants are inoculated with an aqueous spore suspension of Sphaerotheca fuliginea. The plants are then placed in a greenhouse at approximately 23° C. and a relative atmospheric humidity of approximately 70%. The test is evaluated 7 days after the inoculation. 0% means an efficacy which corresponds to that of the control, while an efficacy of 100% means that no disease is observed.

Regarding `CNC(=O)/C(=N/OC)c1ccccc1Oc1ccccc1` [Metominostrobin, (E)-α-(methoxyimino)-N-methyl-2-phenoxy-benzeneacetamide], the Efficacy in % in test [1] is 50%; in test [2] (rate of application 2.5 ppm) it was 0%; in test [2] (rate of application 5 ppm), 20%; in test [3], 0%.
In the case of `OC(Cc1ccccc1Cl)(Cn1nc[nH]c1=S)C1(Cl)CC1` (centres unmarked) [Prothioconazole, 2-[2-(1-chlorocyclopropyl)-3-(2-chlorophenyl)-2-hydroxypropyl]-2,4-dihydro-[1,2,4]-triazole-3-thione], the Efficacy in % in test [1] is given as 13%; in test [2] (rate of application 0.1 ppm), 20%; in test [2] (rate of application 0.5 ppm), 50%; in test [3], 65%.
